How the values were obtained:
[1] = test system: normal human epidermal keratinocytes (neonatal keratinocytes, NHEK)
Protocol: To test a possible cytotoxic effect resulting in a morphological change of keratinocytes, normal human epidermal keratinocytes were obtained from Clonetics (neonatal keratinocytes, NHEK) and were cultured according to the manufacturers' protocol. In short, after thawing, the keratinocytes were cultured in T-75 flasks in keratinocyte culture media (provided by the manufacturer) until they reached 70-80% confluency. The keratinocytes were then trypsinized, transferred into new T-75 flasks at a density of 3500 cells/cm^2. After this expansion step the keratinocytes were immediately used for the cytotoxic assay procedure or were frozen for later use. […] Cells treated with media only were used as a negative control. Photos were taken at 3, 6 and 24 hours after stimulation for documentary reasons.

[2] = test system: human melanoma cell line (Mel-Ho); experiment: Melanocyte dendrite outgrowth assay; assay type: cell-based; conditions: Mel-Ho cells; for dendrite formation (dendricity): 100 µM, treated for 24 hours, digital photography (Figure 1)
Description: A possibility to test the effect of a compound on melanocyte function as a measure for pigmentation, the melanocyte dendrite outgrowth assay can be performed. Vitiligo melanocytes for example have only stubby dendrites. Increasing dendricity as a prerequisite for the transfer of the melanosomes from melanocytes to the surrounding keratinocytes rescues this defect. For this assay, cells from a human melanoma cell line (Mel-Ho) were obtained from DSMZ (Deutsche Sammlung für Mikroorganismen und Zellkulturen) and were cultured according to the protocol provided by DSMZ. In short, after thawing the melanocytes were cultured in T-75 flasks in melanocyte culture media (provided by the manufacturer) until they reach 70-80% confluency. The melanocytes were then trypsinized, transferred into 5-10 new T-75 flasks, and grown again to same confluency as described above. After this expansion step the melanocytes were immediately used for the Melanocyte Dendrite Outgrowth Assay or were frozen for later use. […] Forskolin is known to cause increased melanocyte dendricity and was used as a positive control. […] Melanocyte dendrite outgrowth was documented by digital photography (Canon G2 Powershot) after 3, 6 and 24 hours.

Structure (SMILES)	morphological changes as a measure for cytotoxicity [1]	dendrite formation (dendricity) [2]	morphological changes as a measure for cytotoxicity (HaCaT keratinocytes)	dendrite formation ([2]; concentrations lower than 100 µM)
O=S(=O)(c1cccc2cnccc12)N1CCCNCC1 [1-(5-isoquinolinesulfonyl)homopiperazine]	normal morphology	strong dendrite formation	normal morphology	–
Cl.Cl.O=S(=O)(c1cccc2cnccc12)N1CCCNCC1 [1-(5-isoquinolinesulfonyl)homopiperazine dihydrochloride]	No morphological changes	dendricity was strongly stimulated	No morphological changes	sufficient to induce dendrite formation
